Experimental data as given in PubChem BioAssay (NCI).
Values joined by “and” are separate entries in the source; they are usually repeats but may differ in a detail not shown here. Equal values may be shown once.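 These data come from cells grown in 96-well plates and exposed to compound for 48 hours at five concentrations. Here, GI50 denotes the concentration required for 50% inhibition of growth. At the TGI there is no net growth.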

How the values were obtained:
Experiment in all cases: inhibition of tumour cell growth, NCI panel, 48 h
OVCAR-4 ovarian = test system: OVCAR-4 ovarian
SF-268 CNS = test system: SF-268 CNS
MDA-MB-435 = test system: MDA-MB-435
SF-295 CNS = test system: SF-295 CNS
SF-539 CNS = test system: SF-539 CNS
SK-MEL-5 melanoma = test system: SK-MEL-5 melanoma
HOP-92 NSCLC = test system: HOP-92 NSCLC
UO-31 renal = test system: UO-31 renal
IGROV1 ovarian = test system: IGROV1 ovarian
CAKI-1 renal = test system: CAKI-1 renal
PC-3 prostate = test system: PC-3 prostate
UACC-62 melanoma = test system: UACC-62 melanoma
EKVX NSCLC = test system: EKVX NSCLC
SW-620 colon = test system: SW-620 colon
RXF 393 renal = test system: RXF 393 renal
LOX IMVI melanoma = test system: LOX IMVI melanoma
DU-145 prostate = test system: DU-145 prostate
CCRF-CEM leukemia = test system: CCRF-CEM leukemia
BT-549 breast = test system: BT-549 breast
HOP-62 NSCLC = test system: HOP-62 NSCLC
KM12 colon = test system: KM12 colon
SK-OV-3 ovarian = test system: SK-OV-3 ovarian
NCI-H522 lung = test system: NCI-H522 lung
SNB-19 CNS = test system: SNB-19 CNS
MOLT-4 leukemia = test system: MOLT-4 leukemia
M14 melanoma = test system: M14 melanoma
NCI-H23 lung = test system: NCI-H23 lung
HCT-116 colon = test system: HCT-116 colon
NCI-H226 lung = test system: NCI-H226 lung
TK-10 renal = test system: TK-10 renal
A549 NSCLC = test system: A549 NSCLC
MCF7 breast = test system: MCF7 breast
SNB-75 CNS = test system: SNB-75 CNS
COLO 205 colon = test system: COLO 205 colon
SN12C renal = test system: SN12C renal
OVCAR-8 ovarian = test system: OVCAR-8 ovarian
MALME-3M melanoma = test system: MALME-3M melanoma
HT29 colon = test system: HT29 colon
A498 renal = test system: A498 renal
SK-MEL-28 melanoma = test system: SK-MEL-28 melanoma
NCI/ADR-RES ovarian = test system: NCI/ADR-RES ovarian
T-47D breast = test system: T-47D breast
786-0 renal = test system: 786-0 renal
ACHN renal = test system: ACHN renal
OVCAR-3 ovarian = test system: OVCAR-3 ovarian
HCC-2998 colon = test system: HCC-2998 colon
SR leukemia = test system: SR leukemia
HS 578T breast = test system: HS 578T breast
HCT-15 colon = test system: HCT-15 colon
RPMI-8226 leukemia = test system: RPMI-8226 leukemia
K-562 leukemia = test system: K-562 leukemia
UACC-257 melanoma = test system: UACC-257 melanoma
OVCAR-5 ovarian = test system: OVCAR-5 ovarian
HL-60(TB) leukemia = test system: HL-60(TB) leukemia
NCI-H460 lung = test system: NCI-H460 lung
MDA-MB-231 breast = test system: MDA-MB-231 breast
SK-MEL-2 melanoma = test system: SK-MEL-2 melanoma

## CN1C(=O)[C@]23SSC1(C)C(=O)N2[C@H]1Nc2ccccc2C1([C@@]12c4ccccc4N[C@@H]1N1C(=O)C4(C)SS[C@]1(C(=O)N4C)[C@H]2O)[C@@H]3O (stereo partly specified)
OVCAR-4 ovarian
  GI50: 30.2 nM and 164 nM
  TGI: 73.1 nM and 322 nM
SF-268 CNS
  GI50: 309 nM and 1960 nM
  TGI: 1260 nM and 5580 nM
MDA-MB-435
  GI50: 96.7 nM and 265 nM
  TGI: 413 nM and 804 nM
SF-295 CNS
  GI50: 275 nM and 2380 nM
  TGI: 555 nM and 4690 nM
SF-539 CNS
  GI50: 68.7 nM and 277 nM
  TGI: 264 nM and 762 nM
SK-MEL-5 melanoma
  TGI: 242 nM and 2010 nM
HOP-92 NSCLC
  GI50: 307 nM and 302 nM
  TGI: 640 nM and 674 nM
UO-31 renal
  GI50: 45.2 nM and 192 nM
  TGI: 122 nM and 367 nM
IGROV1 ovarian
  GI50: 238 nM and 290 nM
  TGI: 570 nM and 864 nM
CAKI-1 renal
  GI50: 48.8 nM and 154 nM
  TGI: 170 nM and 396 nM
PC-3 prostate
  GI50: 185 nM and 662 nM
  TGI: 720 nM and 3010 nM
UACC-62 melanoma
  GI50: 137 nM and 420 nM
  TGI: 398 nM and 1820 nM
EKVX NSCLC
  GI50: 64.4 nM and 606 nM
  TGI: 504 nM and 3690 nM
SW-620 colon
  GI50: 66.7 nM and 144 nM
  TGI: 434 nM and 660 nM
RXF 393 renal
  GI50: 33 nM and 170 nM
  TGI: 65.7 nM and 318 nM
LOX IMVI melanoma
  GI50: 30.9 nM and 165 nM
  TGI: 70.8 nM and 394 nM
DU-145 prostate
  GI50: 46.1 nM and 299 nM
  TGI: 208 nM and 1440 nM
CCRF-CEM leukemia
  GI50: 73.9 nM and 203 nM
  TGI: 1560 nM and 2210 nM
BT-549 breast
  GI50: 218 nM and 1490 nM
  TGI: 486 nM and 2970 nM
HOP-62 NSCLC
  GI50: 219 nM and 1400 nM
  TGI: 576 nM and 3300 nM
KM12 colon
  GI50: 140 nM and 1210 nM
  TGI: 478 nM and 3410 nM
SK-OV-3 ovarian
  GI50: 293 nM and 1670 nM
  TGI: 751 nM and 4050 nM
NCI-H522 lung
  GI50: 28.8 nM and 179 nM
  TGI: 61.9 nM and 395 nM
SNB-19 CNS
  GI50: 455 nM and 1330 nM
  TGI: 1580 nM and 4340 nM
MOLT-4 leukemia
  GI50: 65.3 nM and 214 nM
  TGI: 590 nM and 1370 nM
M14 melanoma
  GI50: 48.2 nM and 175 nM
  TGI: 163 nM and 451 nM
NCI-H23 lung
  GI50: 37.4 nM
  TGI: 101 nM
HCT-116 colon
  GI50: 55.8 nM and 97.4 nM
  TGI: 229 nM and 556 nM
NCI-H226 lung
  GI50: 290 nM
  TGI: 807 nM
TK-10 renal
  GI50: 54.5 nM and 503 nM
  TGI: 128 nM and 906 nM
A549 NSCLC
  TGI: 1100 nM and 6850 nM
MCF7 breast
  GI50: 10.7 nM and 45.7 nM
  TGI: 223 nM and 1220 nM
SNB-75 CNS
  GI50: 209 nM and 1960 nM
  TGI: 544 nM and 3500 nM
COLO 205 colon
  GI50: 28.3 nM and 153 nM
  TGI: 61.3 nM and 395 nM
SN12C renal
  GI50: 107 nM and 407 nM
  TGI: 1170 nM and 1910 nM
OVCAR-8 ovarian
  GI50: 34.8 nM and 165 nM
  TGI: 75.1 nM and 359 nM
MALME-3M melanoma
  GI50: 22.7 nM and 50.5 nM
  TGI: 53.9 nM and 184 nM
HT29 colon
  GI50: 27.6 nM and 187 nM
  TGI: 86.5 nM and 454 nM
A498 renal
  GI50: 384 nM and 2330 nM
  TGI: 678 nM and 3810 nM
SK-MEL-28 melanoma
  GI50: 33.9 nM and 187 nM
  TGI: 76.6 nM and 419 nM
NCI/ADR-RES ovarian
  GI50: 121 nM and 549 nM
  TGI: 588 nM and 3740 nM
T-47D breast
  GI50: 22 nM and 184 nM
  TGI: 89.9 nM and 595 nM
786-0 renal
  GI50: 44.8 nM and 185 nM
  TGI: 108 nM and 363 nM
ACHN renal
  GI50: 37.1 nM and 57.7 nM
  TGI: 100 nM and 508 nM
OVCAR-3 ovarian
  GI50: 20.2 nM and 183 nM
  TGI: 57.1 nM and 426 nM
HCC-2998 colon
  GI50: 79.1 nM and 567 nM
  TGI: 297 nM and 1940 nM
SR leukemia
  GI50: 46.5 nM and 210 nM
  TGI: 417 nM and 1070 nM
HS 578T breast
  GI50: 465 nM and 1580 nM
  TGI: 1730 nM and 5400 nM
HCT-15 colon
  GI50: 21.7 nM and 143 nM
RPMI-8226 leukemia
  GI50: 53.6 nM and 257 nM
  TGI: 221 nM and 882 nM
K-562 leukemia
  GI50: 39.7 nM and 84.7 nM
  TGI: 2880 nM and 10500 nM
UACC-257 melanoma
  GI50: 34.8 nM and 208 nM
  TGI: 94.3 nM and 488 nM
OVCAR-5 ovarian
  GI50: 360 nM and 1440 nM
  TGI: 756 nM and 4210 nM
HL-60(TB) leukemia
  GI50: 235 nM and 254 nM
  TGI: 782 nM and 1530 nM
NCI-H460 lung
  GI50: 129 nM and 326 nM
  TGI: 1490 nM and 1140 nM
MDA-MB-231 breast
  GI50: 54.9 nM and 321 nM
  TGI: 184 nM and 827 nM
SK-MEL-2 melanoma
  GI50: 265 nM and 718 nM
  TGI: 540 nM and 2160 nM
